# Tests used:
# Assay type in all cases: functional
# CCRF-CEM = experiment: Growth inhibition of human CCRF-CEM cells assessed as cell growth at 10 uM incubated for 48 hrs by sulforhodamine B assay relative to control; conditions: read-out: Activity
# RPMI-8226 = experiment: Growth inhibition of human RPMI8226 cells assessed as cell growth at 10 uM incubated for 48 hrs by sulforhodamine B assay relative to control; conditions: RPMI-8226, 48 h, read-out: Activity
# A549 = experiment: Growth inhibition of human A549/ATCC cells assessed as cell growth at 10 uM incubated for 48 hrs by sulforhodamine B assay relative to control; conditions: A549, 48 h, read-out: Activity
# HOP-62 = experiment: Growth inhibition of human HOP62 cells assessed as cell growth at 10 uM incubated for 48 hrs by sulforhodamine B assay relative to control; conditions: HOP-62, 48 h, read-out: Activity
# HOP-92 = experiment: Growth inhibition of human HOP92 cells assessed as cell growth at 10 uM incubated for 48 hrs by sulforhodamine B assay relative to control; conditions: HOP-92, 48 h, read-out: Activity
# NCI-H226 = experiment: Growth inhibition of human NCI-H226 cells assessed as cell growth at 10 uM incubated for 48 hrs by sulforhodamine B assay relative to control; conditions: NCI-H226, 48 h, read-out: Activity
# NCI-H322M = experiment: Growth inhibition of human NCI-H322M cells assessed as cell growth at 10 uM incubated for 48 hrs by sulforhodamine B assay relative to control; conditions: read-out: Activity
# NCI-H460 = experiment: Growth inhibition of human NCI-H460 cells assessed as cell growth at 10 uM incubated for 48 hrs by sulforhodamine B assay relative to control; conditions: NCI-H460, 48 h, read-out: Activity
# NCI-H522 = experiment: Growth inhibition of human NCI-H522 cells assessed as cell growth at 10 uM incubated for 48 hrs by sulforhodamine B assay relative to control; conditions: NCI-H522, 48 h, read-out: Activity
# COLO 205 = experiment: Growth inhibition of human COLO205 cells assessed as cell growth at 10 uM incubated for 48 hrs by sulforhodamine B assay relative to control; conditions: COLO 205, 48 h, read-out: Activity
# HT-29 = experiment: Growth inhibition of human HT-29 cells assessed as cell growth at 10 uM incubated for 48 hrs by sulforhodamine B assay relative to control; conditions: HT-29, 48 h, read-out: Activity
# SF-539 = experiment: Growth inhibition of human SF539 cells assessed as cell growth at 10 uM incubated for 48 hrs by sulforhodamine B assay relative to control; conditions: SF-539, 48 h, read-out: Activity
# SNB-75 = experiment: Growth inhibition of human SNB75 cells assessed as cell growth at 10 uM incubated for 48 hrs by sulforhodamine B assay relative to control; conditions: SNB-75, 48 h, read-out: Activity
# LOX IMVI = experiment: Growth inhibition of human LOXIMVI cells assessed as cell growth at 10 uM incubated for 48 hrs by sulforhodamine B assay relative to control; conditions: read-out: Activity
# Malme-3M = experiment: Growth inhibition of human MALME-3M cells assessed as cell growth at 10 uM incubated for 48 hrs by sulforhodamine B assay relative to control; conditions: read-out: Activity
# SK-MEL-2 = experiment: Growth inhibition of human SK-MEL-2 cells assessed as cell growth at 10 uM incubated for 48 hrs by sulforhodamine B assay relative to control; conditions: SK-MEL-2, 48 h, read-out: Activity
# SK-MEL-28 = experiment: Growth inhibition of human SK-MEL-28 cells assessed as cell growth at 10 uM incubated for 48 hrs by sulforhodamine B assay relative to control; conditions: SK-MEL-28, 48 h, read-out: Activity
# OVCAR-4 = experiment: Growth inhibition of human OVCAR4 cells assessed as cell growth at 10 uM incubated for 48 hrs by sulforhodamine B assay relative to control; conditions: OVCAR-4, 48 h, read-out: Activity
# OVCAR-5 = experiment: Growth inhibition of human OVCAR5 cells assessed as cell growth at 10 uM incubated for 48 hrs by sulforhodamine B assay relative to control; conditions: OVCAR-5, 48 h, read-out: Activity
# OVCAR-8 = experiment: Growth inhibition of human OVCAR8 cells assessed as cell growth at 10 uM incubated for 48 hrs by sulforhodamine B assay relative to control; conditions: OVCAR-8, 48 h, read-out: Activity
# NCI/ADR-RES = experiment: Growth inhibition of human NCI/ADR-RES cells assessed as cell growth at 10 uM incubated for 48 hrs by sulforhodamine B assay relative to control; conditions: read-out: Activity
# SK-OV-3 = experiment: Growth inhibition of human SKOV3 cells assessed as cell growth at 10 uM incubated for 48 hrs by sulforhodamine B assay relative to control; conditions: SK-OV-3, 48 h, read-out: Activity
# A498 = experiment: Growth inhibition of human A498 cells assessed as cell growth at 10 uM incubated for 48 hrs by sulforhodamine B assay relative to control; conditions: A498, 48 h, read-out: Activity
# ACHN = experiment: Growth inhibition of human ACHN cells assessed as cell growth at 10 uM incubated for 48 hrs by sulforhodamine B assay relative to control; conditions: read-out: Activity
# CAKI-1 = experiment: Growth inhibition of human Caki1 cells assessed as cell growth at 10 uM incubated for 48 hrs by sulforhodamine B assay relative to control; conditions: CAKI-1, 48 h, read-out: Activity
# RXF 393 = experiment: Growth inhibition of human RXF393 cells assessed as cell growth at 10 uM incubated for 48 hrs by sulforhodamine B assay relative to control; conditions: RXF 393, 48 h, read-out: Activity
# SN12C = experiment: Growth inhibition of human SN12C cells assessed as cell growth at 10 uM incubated for 48 hrs by sulforhodamine B assay relative to control; conditions: read-out: Activity
# TK-10 = experiment: Growth inhibition of human TK10 cells assessed as cell growth at 10 uM incubated for 48 hrs by sulforhodamine B assay relative to control; conditions: TK-10, 48 h, read-out: Activity
# UO-31 = experiment: Growth inhibition of human UO31 cells assessed as cell growth at 10 uM incubated for 48 hrs by sulforhodamine B assay relative to control; conditions: UO-31, 48 h, read-out: Activity
# PC-3 = experiment: Growth inhibition of human PC3 cells assessed as cell growth at 10 uM incubated for 48 hrs by sulforhodamine B assay relative to control; conditions: PC-3, 48 h, read-out: Activity
# DU-145 = experiment: Growth inhibition of human DU145 cells assessed as cell growth at 10 uM incubated for 48 hrs by sulforhodamine B assay relative to control; conditions: DU-145, 48 h, read-out: Activity
# BT-549 = experiment: Growth inhibition of human BT549 cells assessed as cell growth at 10 uM incubated for 48 hrs by sulforhodamine B assay relative to control; conditions: BT-549, 48 h, read-out: Activity
# MDA-MB-468 = experiment: Growth inhibition of human MDA-MB-468 cells assessed as cell growth at 10 uM incubated for 48 hrs by sulforhodamine B assay relative to control; conditions: MDA-MB-468, 48 h, read-out: Activity
Compound,growth at 10 µM (CCRF-CEM) [%],growth at 10 µM (RPMI-8226) [%],growth at 10 µM (A549) [%],growth at 10 µM (HOP-62) [%],growth at 10 µM (HOP-92) [%],growth at 10 µM (NCI-H226) [%],growth at 10 µM (NCI-H322M) [%],growth at 10 µM (NCI-H460) [%],growth at 10 µM (NCI-H522) [%],growth at 10 µM (COLO 205) [%],growth at 10 µM (HT-29) [%],growth at 10 µM (SF-539) [%],growth at 10 µM (SNB-75) [%],growth at 10 µM (LOX IMVI) [%],growth at 10 µM (Malme-3M) [%],growth at 10 µM (SK-MEL-2) [%],growth at 10 µM (SK-MEL-28) [%],growth at 10 µM (OVCAR-4) [%],growth at 10 µM (OVCAR-5) [%],growth at 10 µM (OVCAR-8) [%],also measured
O=C1NCC(c2cc3ccc(Cl)cc3[nH]c2=O)Nc2ccccc21 (configuration not stated),134,119,73.9,81.3,74,79.7,98,104,63.8,94.9,72.2,95,84.3,96.3,93.4,103,105,94,97.7,97.8,growth at 10 µM (NCI/ADR-RES): 99.4%; growth at 10 µM (SK-OV-3): 77.8%; growth at 10 µM (A498): 112%; growth at 10 µM (ACHN): 101%; growth at 10 µM (CAKI-1): 101%; growth at 10 µM (RXF 393): 97.2%; growth at 10 µM (SN12C): 111%; growth at 10 µM (TK-10): 83%; growth at 10 µM (UO-31): 88.7%; growth at 10 µM (PC-3): 87.1%; growth at 10 µM (DU-145): 110%; growth at 10 µM (BT-549): 99.9%; growth at 10 µM (MDA-MB-468): 96.5%
CCCCOc1nc2ccccc2cc1C1CNC(=O)c2ccccc2N1 (configuration not stated),12.6,25.6,19.9,23,48.9,0.7,47.2,6.89,-13.6,9.84,0.87,-25.5,3.14,27.1,45.6,15.7,45.8,47.7,55.3,22.4,growth at 10 µM (NCI/ADR-RES): 3.84%; growth at 10 µM (SK-OV-3): 14.8%; growth at 10 µM (A498): -11.2%; growth at 10 µM (ACHN): 46.7%; growth at 10 µM (CAKI-1): 42.6%; growth at 10 µM (RXF 393): -14.3%; growth at 10 µM (SN12C): 44.1%; growth at 10 µM (TK-10): 34.3%; growth at 10 µM (UO-31): 41.3%; growth at 10 µM (PC-3): 24.7%; growth at 10 µM (DU-145): 10.7%; growth at 10 µM (BT-549): 41%; growth at 10 µM (MDA-MB-468): -1.81%
CCCCn1c(=O)c(C2CNC(=O)c3ccccc3N2)cc2ccc(Cl)cc21 (configuration not stated),103,103,92.6,94,95.9,99.6,95.7,87,88.8,89.6,98.7,82,90,86.3,103,99.6,108,97.8,109,99.3,growth at 10 µM (NCI/ADR-RES): 101%; growth at 10 µM (SK-OV-3): 89.8%; growth at 10 µM (A498): 91.3%; growth at 10 µM (ACHN): 95.4%; growth at 10 µM (CAKI-1): 72.5%; growth at 10 µM (RXF 393): 115%; growth at 10 µM (SN12C): 90.7%; growth at 10 µM (TK-10): 126%; growth at 10 µM (UO-31): 75.3%; growth at 10 µM (PC-3): 93%; growth at 10 µM (DU-145): 94.9%; growth at 10 µM (BT-549): 104%; growth at 10 µM (MDA-MB-468): 99.8%
CCCCn1c(=O)c(C2CNC(=O)c3ccccc3N2)cc2ccccc21 (configuration not stated),110,109,97.1,91.8,95.2,111,111,102,92.5,111,103,89.9,84,97.2,107,106,102,103,96.3,114,growth at 10 µM (NCI/ADR-RES): 100%; growth at 10 µM (SK-OV-3): 97.2%; growth at 10 µM (A498): 88.7%; growth at 10 µM (ACHN): 98.2%; growth at 10 µM (CAKI-1): 85.8%; growth at 10 µM (RXF 393): 111%; growth at 10 µM (SN12C): 85.7%; growth at 10 µM (TK-10): 109%; growth at 10 µM (UO-31): 93.1%; growth at 10 µM (PC-3): 106%; growth at 10 µM (DU-145): 108%; growth at 10 µM (BT-549): 97.8%; growth at 10 µM (MDA-MB-468): 107%
